Results as given in ChEMBL document CHEMBL1158048, “19-Nor- and 18,20-epoxy-cardenolides from the leaves of Calotropis gigantea” (J Nat Prod, 2006).
Active and inactive are the calls of the source. No cut-off for these calls is given here.

Assays:
NCI-H187 [1] = experiment: Cytotoxicity against human NCI-H187 cells at 20 ug/ml by SRB assay; type: functional, cell-based
BC = experiment: Cytotoxicity against human BC cells at 20 ug/ml by SRB assay; type: functional, cell-based
KB [2] = experiment: Cytotoxicity against human KB cells at 20 ug/ml by SRB assay; type: functional, cell-based
NCI-H187 [3] = experiment: Cytotoxicity against human NCI-H187 cells by SRB assay; type: functional, cell-based
KB [4] = experiment: Cytotoxicity against human KB cells by SRB assay; type: functional, cell-based
[5] = Cytotoxicity against human BC cells by SRB assay; type: functional, cell-based
Plasmodium falciparum = experiment: Antimalarial activity after 48 hrs against multidrug-resistant Plasmodium falciparum K1; type: functional, organism-based

Row | SMILES | Activity (NCI-H187 [1]) | Activity (BC) | Activity (KB [2]) | IC50 (NCI-H187 [3]) [nM] | IC50 (KB [4]) [nM] | IC50 [5] [nM] | Activity (Plasmodium falciparum)
1 | COC(=O)[C@@]1(O)C[C@@H](C)O[C@H]1O[C@@H]1C[C@@H]2CC[C@@H]3[C@H](CC[C@]4(C)[C@@H](C5=CC(=O)OC5)CC[C@]34O)[C@@]2(C(=O)O)C[C@H]1O | inactive | inactive | inactive | – | – | – | –
2 | C[C@@H]1C[C@H](O)[C@]2(O)O[C@@H]3C[C@@]4(C=O)[C@@H](CC[C@@H]5[C@@H]4CC[C@]46CO[C@]7(COC(=O)C7)[C@H]4CC[C@]56O)C[C@H]3O[C@@H]2O1 | – | – | – | 3640 | 1290 | 2210 | –
3 | COc1cccc2c1C(=O)c1c(O)c3c(c(O)c1C2=O)C[C@@](O)(C(=O)CO)C[C@@H]3O[C@H]1C[C@H](N)[C@H](O)[C@H](C)O1 [DOXORUBICIN] | – | – | – | 40.5 | 219 | 288 | –
4 | Cc1c2ccncc2c(C)c2c1[nH]c1ccccc12 [ELLIPTECINE] | – | – | – | 2230 | 812 | 682 | –
5 | COC(=O)[C@@]1(O)C[C@@H](C)O[C@H]1O[C@@H]1C[C@@H]2CC[C@@H]3[C@H](CC[C@]4(C)[C@@H](C5=CC(=O)OC5)CC[C@]34O)[C@@]2(C=O)C[C@H]1O [CALACTINICACID METHYL ESTER] | – | – | – | 14400 | 3730 | 5650 | –
6 | C[C@@H]1C[C@@H](O)[C@]2(O)O[C@@H]3C[C@@]4(C=O)[C@@H](CC[C@@H]5[C@@H]4CC[C@]4(C)[C@@H](C6=CC(=O)OC6)CC[C@]54O)C[C@H]3O[C@@H]2O1 [CALACTIN] | – | – | – | 345 | 41.3 | 20.7 | inactive
7 | C[C@@H]1C[C@H](O)[C@]2(O)O[C@@H]3C[C@@]4(C=O)[C@@H](CC[C@@H]5[C@@H]4CC[C@]4(C)[C@@H](C6=CC(=O)OC6)CC[C@]54O)C[C@H]3O[C@@H]2O1 [CALOTROPIN] | – | – | – | 471 | 62 | 41.3 | inactive
8 | C[C@]12CC[C@H](O)C[C@H]1CC[C@@H]1[C@@H]2CC[C@]2(C)[C@@H](C3=CC(=O)OC3)CC[C@]12O [DIGITOXIGENIN] | – | – | – | 9770 | 9610 | 8950 | inactive
9 | C[C@@H]1C[C@H](O)[C@]2(O)O[C@@H]3C[C@@]4(C=O)[C@@H](CC[C@@H]5[C@@H]4CC[C@]4(C)[C@@H](C6=CC(=O)OC6)C[C@@H](O)[C@]54O)C[C@H]3O[C@@H]2O1 | – | – | – | 3330 | 602 | 547 | –
